Source: patent US11060153B2, “Fluorescence amplification method for forward genetic discovery of factors in human mRNA degradation” (Yale University, priority 2016, dated 2021)

How the values were obtained:
human NMD [1] = assay: CRISPR-based forward genetic screen of the GeCKO-LtCRISPR sgRNA library in "green" Fireworks cells (FACS enrichment rounds, deep sequencing of sgRNAs); format: cell-based; settings: for sgRNA abundance (%): deep sequencing reads for the sgRNA in the enriched cell population / all reads x 100, round 2, "green" Fireworks cells; for sgRNA enrichment (2nd round): reads in the enriched cell population / reads in total cells at the beginning of the 2nd round, measure of increased PTC(+) reporter fluorescence
Method: 1.8×10^8 (6×15 cm plates) “green” Fireworks cells were lentivirally transduced with the blasticidin-resistant GeCKO-LtCRISPR viral library (Shalem et al., Science 2014, 343:84-87) using 4.0 μm/ml of polybrene and propagated for 8-9 days in DMEM media supplemented with 10% FBS and 120 μm/ml hygromycin, 0.3 μg/ml puromycin and 3.0 μm/ml blasticidin. NMD-deficient cell populations (2×10^5 cells) were isolated from 4×10^8 transduced cells using a Bio-Rad S3e cell sorter (100 μm nozzle) and their genomic DNA was phenol-extracted. sgRNAs pools were PCR-amplified using RandomF (5′-[…] AACACCG-3′) (SEQ ID NO: 6) and RandomR (5′-[…] TAAAAC-3′) (SEQ ID NO: 7) primers and Gibson-cloned into the BsmBI-inearized LentiCRISPR (Shalem et al., Science 2014, 343:84-87) vector to obtain a lentiviral library (represented by 1.5×10^8 independent transformants) for the next enrichment round (FIG. 5C). Three rounds of GeCKO Lt-CRISPR library enrichment were conducted; 1.4×10^8 and 1.2×10^8 cells were sorted in the 2nd and 3rd rounds, respectively. sgRNAs obtained from the 2nd round were deep-sequenced and ranked (Table 1) according to their (i) overall abundance in the enriched sgRNA pool and (ii) enrichment over the starting sgRNA population in this round (since successful enrichment increases both of these numbers).
The Fireworks system was tested with the CRIPR-based knockout screening using the lentiviral GeCKO-lentiCRISPR sgRNA library (Shalem et al., Science 2014, 343:84-87), which contains 64,751 sgRNAs targeting 18,080 human genes. Ease of amplification of chromosomally-integrated sgRNAs by PCR allows multiple rounds of sgRNA library enrichment (FIG. 5C) as sgRNAs are iteratively re-transduced into the original Fireworks cell line after the each round of FACS selection in a SELEX-like (Tuerk and Gold, Science 1990, 249:505-510) manner. Fireworks-driven FACS throughput permits completion of one FACS cycle of genome-wide GeCKO library screening with nearly 800-fold library coverage in less than one hour. […] Importantly, sgRNA-specific effects are amplified, whereas cell-specific fluorescence noise is completely reset at the beginning of each sgRNA enrichment round (FIG. 5C), effectively eliminating false-positives arising from spontaneous and lentiviral insertion-induced (and therefore sgRNA-independent) mutations affecting reporters or the NMD pathway. An increase in the population of cells with a defect in NMD becomes evident during FACS rounds 2 and 3 of sgRNA library enrichment, as shown in FIG. 5D for the GeCKO-lentiCRISPR (Shalem et al., Science 2014, 343:84-87) library in the “green” Fireworks cell line. Here, sorting gates were chosen so as to collect no more than 0.16% of the negative cell population.
The pool of sgRNAs isolated from round 2 (FIG. 5C, 5D) of NMD-deficient population enrichment was deep sequenced to determine (i) the overall abundance of each sgRNA in the enriched pool and (ii) the enrichment factor for each surviving sgRNA over the starting sgRNA pool at this round. Here, the sgRNA enrichment factor serves as a measure of the increased fluorescence of the PTC(+) Fireworks reporter achieved by that sgRNA. The top 24 most abundant sgRNAs (of 64,751 sgRNAs originally present in the GeCKO library), which attained enrichment scores higher than 10, are listed in Table 1 along with their intended (Shalem et al., Science 2014, 343:84-87) gene targets.

human NMD [2] = assay: FACS analysis of green fluorescence of the PTC(+) GFP reporter in the "red" Fireworks cell line after NMD inhibition; format: cell-based; settings: FIG. 7B
Description: Sixteen of the most abundant individual sgRNAs (Table 1), whose enrichment scores in the 2nd round exceeded 10.0, were individually cloned into linearized Lt-CRISPR vector and lentivirally transduced into the “green” Fireworks cell line. Resulting cells were propagated for 11 days (or 21 days for AVEN sgRNA) and FACS-analyzed to observe an increase in […] fluorescence of the PTC(+) Fireworks reporter. Indeed, the vast majority of sgRNAs reproduced the shift when tested individually. RPS8 and AVEN were targeted with shRNAs (sh22: 5′[…] GTTTTTTG3′ (SEQ ID NO: 8) and sh01: 5′[…] CTTTTTTG3′ (SEQ ID NO: 9) for RPS8 and AVEN, respectively) cloned into the pLKO.1 vector (Moffat et al., Cell 2006, 124:1283-1298) that was used to transduce “green” and “red” Fireworks cells followed by FACS-analysis to observe effects of mRNA knockdown on fluorescence of the PTC(+) reporters.
The Fireworks approach provides the ability to perform forward genetic screens for human NMD factors at the speed of a FACS sorter. As designed, orthogonal Fireworks cell lines respond as expected to the introduction of a stop codon (PTC39) (Zhang et al., RNA 1998, 4:801-815) into the β-globin sequence by a 7- to 9-fold reduction in the reporter's fluorescence (FIGS. 1C, 1D and 2C). PTC39, which is upstream of the last intron in the β-globin pre-mRNA, induces NMD of the Fireworks reporter mRNA. […]

| Substance | sgRNA abundance (%) (human NMD [1]) | sgRNA enrichment (2nd round) (human NMD [1]) | green fluorescence of the "red" Fireworks cell line after shRNA transduction (human NMD [2]) |
| --- | --- | --- | --- |
| 33 (TACCTATGTGCGTCAGCAGC; expressed or natural sequence) [compound 33] | 0.023 | 49.5 | – |
| CCGGCCGTGCCCTGAGGTTGGACGTCTCGAGACGTCCAACCTCAGGGCACG GTTTTTTG (guide CCGGCCGTGCCCTGAGGTTGGACGTCTCGAGACGTCCAACCTCAGGGCACGGTTTTTTG; expressed or natural sequence) [RPS8-targeting shRNA, shRNA targeting RPS8 cloned into the pLKO.1 vector] | – | – | increase in green fluorescence |
| 19 (CCGTGACATCACAGACCCGT; expressed or natural sequence) [compound 19] | 0.176 | 21.2 | – |
| 23 (CTCAACCGATTCCTTAGACG; expressed or natural sequence) [compound 23] | 0.125 | 19.5 | – |
| 15 (ACGCACCTGGTTGCTGGTAT; expressed or natural sequence) [compound 15] | 0.265 | 54.7 | – |
| 27 (GAAAGACTGAGGAGCTGCTG; expressed or natural sequence) [compound 27] | 0.062 | 38.0 | – |
| 12 (AGTGTCCTCCTTAGCTCTGC; expressed or natural sequence) [compound 12] | 0.872 | 118.7 | – |
| 10 (TGATTACGTCCTCCACCTCG; expressed or natural sequence) [compound 10] | 1.081 | 47.0 | – |
| 16 (GGATGACCAAGACGACATCA; expressed or natural sequence) [compound 16] | 0.262 | 18.3 | – |
| 25 (TGCTTTGTGTTTCTTTACAC; expressed or natural sequence) [compound 25] | 0.083 | 17.0 | – |
| 24 (TCACGCTTCACGCTGACAGT; expressed or natural sequence) [compound 24] | 0.083 | 80.0 | – |
| 14 (GTTCTCTGATAATCAGAATG; expressed or natural sequence) [compound 14] | 0.439 | 14.7 | – |
| 17 (CTATGAGGGGGTCAGTGACA; expressed or natural sequence) [compound 17] | 0.232 | 18.3 | – |
| 13 (AGTGTCCTCCTTAGCTCTGC; expressed or natural sequence) [compound 13] | 0.440 | 33.8 | – |
| 31 (GCGCCCAGCTGCCAACACCA; expressed or natural sequence) [compound 31] | 0.036 | 53.9 | – |
| 28 (TTCAAACTAGTAAGCAACAC; expressed or natural sequence) [compound 28] | 0.054 | 18.4 | – |
| 18 (TGAGCACATACTCTTCACAC; expressed or natural sequence) [compound 18] | 0.180 | 102.2 | – |
| 21 (GGTACCTTCACTGGAGCCAC; expressed or natural sequence) [compound 21] | 0.132 | 16.1 | – |
| 29 (TAAGTTGTCAGAAAACATGA; expressed or natural sequence) [compound 29] | 0.054 | 17.1 | – |
| 26 (TTAGCATCAGCTACTGCCAG; expressed or natural sequence) [compound 26] | 0.076 | 14.2 | – |
| 22 (TATGTCTTACCAGAAGCTGC; expressed or natural sequence) [compound 22] | 0.132 | 23.3 | – |
| 32 (AGCCCATAATGTACCAGTGC; expressed or natural sequence) [compound 32] | 0.033 | 14.4 | – |
| 20 (CGCATTGAAAACGTTTGCCG; expressed or natural sequence) [compound 20] | 0.153 | 18.4 | – |
| 30 (TCACATCGGCAGCCACCCGT; expressed or natural sequence) [compound 30] | 0.043 | 30.7 | – |
| 11 (AGGTCCACTCACCATTGGAG; expressed or natural sequence) [compound 11] | 0.888 | 113.9 | – |
